Laboratory results reported in patent US20240252668A1, “ANTIBODY DRUG CONJUGATES AND METHODS FOR MAKING THEREOF” (Novartis AG, priority 2021, published 2024).
Where two headings read alike, the source gives them in different places. Starred links: 1 amine or outer side, 2 acyl side, 3 side chain; linkers in the order of their positions; H or OH if unused. Positions of bridges follow the written chain, without caps; N, C: chain ends. Non-standard residues stand in square brackets, D forms with d. Residues, ends and D or L forms follow the SMILES beside them. *: point of attachment. Leu(3R-O(AcLeu(3R-OH))) = CC(=O)N[C@H](C(=O)O[C@H](C(C)C)[C@H](N)C(=O)O)[C@H](O)C(C)C; Leu(3R-OH,Nα-propionyl) = CCC(=O)N[C@H](C(=O)*)[C@H](O)C(C)C; X1 = CC(C)[C@@H](O[*:3])[C@H](N[*:1])C(=O)[*:2]; NMeT = CN[C@H](C(=O)O)[C@@H](C)O; dPhLac = O=C(O)[C@H](O)Cc1ccccc1; NMeA = CN[C@@H](C)C(=O)O; dNMeA = CN[C@H](C)C(=O)O; NMeDha = C=C(NC)C(=O)O

Tests used:
[1] = system: 92.1 uveal melanoma cell line (heterozygous GNAQ Q209L); assay: Cell proliferation assay (resazurin cell viability), 92.1 cell line; format: cell-based
Source text: (§1) Cell Proliferation Assays with Chromodepsins (compounds (A1) and 2-15): Cell line descriptions: 92.1—uveal melanoma cell line, derived from primary tumor, harboring heterozygous GNAQ Q209L mutation. Purchased from Sigma Aldrich. MP41 (CRL-3297) -uveal melanoma cell line, derived from primary tumor, harboring heterozygous GNA11 Q209L mutation. Purchased from ATCC. A375—skin melanoma cell line, harboring homozygous BRAF V600E mutation. Origin: Cancer Cell Line Encyclopedia (CCLE). SK-MEL-30—skin melanoma cell line, harboring heterozygous NRAS Q61K mutation. Origin: CCLE.
(§2) Cells were cultured in 96-well plates in a total volume of 100 μL at 37° C., 5% CO2 and 95% relative humidity. All cell lines were cultured in RPMI Medium (RPMI 1640 w/o L-glutamine, Bioconcept ref. 1-41F01-I) except A375, DMEM medium (DMEM high glucose (4.5 g/L), Bioconcept, ref. 1-26F01-I), and supplemented with 10% FCS (Bioconcept, ref. 2-01F30-I). Two to three thousand cells were seeded in 96-well plates per well the night before they were treated with compounds (concentration range: from 260 nM to 0.036 nM with ⅓ dilution steps; for 7 the concentration range was increased from 10000 nM to 1.52 nM with ⅓ dilution steps). Cell viability was measured by addition of 10 ul of resazurin per well after 96 hours of treatment. Results were analyzed and plotted using GraphPad Prism 9.0.1.

[2] = system: MP41 uveal melanoma cell line (heterozygous GNA11 Q209L); assay: Cell proliferation assay (resazurin cell viability), MP41 cell line; format: cell-based
Source text: as §1, §2

[3] = system: A375 skin melanoma cell line (homozygous BRAF V600E); assay: Cell proliferation assay (resazurin cell viability), A375 cell line; format: cell-based
Source text: as §1, §2

[4] = system: SK-MEL-30 skin melanoma cell line (heterozygous NRAS Q61K); assay: Cell proliferation assay (resazurin cell viability), SK-MEL-30 cell line; format: cell-based
Source text: as §1, §2

[5] = system: 92.1 and MP41 cell lines (GNAQ/GNA11 mutant uveal melanoma); assay: Cell proliferation assays, potency ranking over both uveal melanoma lines; format: cell-based; details: 92.1 and MP41 cell lines
Source text: The selective antiproliferative profile of the chromodepsins against GNAQ/GNA11 mutant cell lines is confirmed by the lack of activity against the A375 and SK MEL 30 cell lines that are independent from GNAQ/GNA11 signaling. The potency ranking using the 92.1 and MP41 cell lines is in good agreement with the previously SAR studies. […] These findings are in line with a recent report from Voss et al., highlighting the importance of the “lipophilic anchors” of compound (A1) at the residues varied in compounds 2 and 3, in context of binding kinetics and prolonged residence time on the target proteins. The retained potency of compound 4 indicates a promising exit vector for potential synthetic or biosynthetic modifications of the scaffold. […] The linearized depsipeptides compounds 5-7 lack any antiproliferative activity. In this experimental setup, the cellular permeability of the compounds was a crucial factor contributing to the observed antiproliferative potency. Therefore, all compounds were characterized in a low efflux MCDK assay and determined their exposed polar surface areas (EPSA) in order to assess their passive cellular permeabilities. All macrocyclic chromodepsins that feature the N acyl Hle side chain show similar results concerning their % fraction absorbed (% FA; average ˜60% FA+20%) and EPSA values.
as §1, §2

MDCK-LE monolayers = assay: Cell-based transwell assay with MDCK-low efflux monolayers (passive permeability); format: in vitro ADME; details: MDCK-LE monolayers
Experimental: Cell-based transwell assays with MDCK-low efflux monolayers: Compounds (A1) and 2-15 were tested in MDCK cell sub-clones with low effluxt ransporter activity (MDCK-LE) in order to determine their passive permeability. The incubations were performed at a contract research organization as described previously.

[6] = EPSA determination by supercritical fluid chromatography; format: physicochemical; details: modified EPSA method, SFC
Experimental: […] by supercritical fluid chromatography: Compounds (A1) and 2-15 were tested by supercritical fluid chromatography (SFC) to determine their ESAPSA values. Samples were analyzed using a Chirex 3014 column ([…], 3×100 mm column, 100 Å pore size; Phenomenex. The starting conditions were 5% methanol containing 20 mM ammonium formate and 95% scCO2. The gradient was increased linearly to 60% methanol containing 20 mM ammonium formate in 4.5 min.

[7] = 92.1 (GNAQ Q209L), 96 hours of treatment, read-out: GI50 by cell line, 92.1
[8] = 92.1 cell line, average of Rep. 1 and 2, read-out: GI50 92.1 Average
[9] = 92.1 cell line, replicate 1, read-out: GI50 92.1 Rep. 1
[10] = 92.1 cell line, replicate 2, read-out: GI50 92.1 Rep. 2
[11] = MP41 (GNA11 Q209L), 96 hours of treatment, read-out: GI50 by cell line, MP41
[12] = MP41 cell line, average of Rep. 1 and 2, read-out: GI50 MP41 Average
[13] = MP41 cell line, replicate 1, read-out: GI50 MP41 Rep. 1
[14] = MP41 cell line, replicate 2, read-out: GI50 MP41 Rep. 2
[15] = A375 (GNAQ/11 wild type), 96 hours of treatment, read-out: GI50 by cell line, A375
[16] = A375 cell line, average of Rep. 1 and 2, read-out: GI50 A375 Average
[17] = A375 cell line, replicate 1, read-out: GI50 A375 Rep. 1
[18] = A375 cell line, replicate 2, read-out: GI50 A375 Rep. 2
[19] = SK-MEL-30 (GNAQ/11 wild type), 96 hours of treatment, read-out: GI50 by cell line, SK-MEL-30
[20] = SK-MEL-30 cell line, average of Rep. 1 and 2, read-out: GI50 SK-MEL-30 Average
[21] = SK-MEL-30 cell line, replicate 1, read-out: GI50 SK-MEL-30 Rep. 1
[22] = SK-MEL-30 cell line, replicate 2, read-out: GI50 SK-MEL-30 Rep. 2

SMILES	GI50 [1, 7]	GI50 [1, 8]	GI50 [1, 9]	GI50 [1, 10]	GI50 [2, 11]	GI50 [2, 12]	GI50 [2, 13]	GI50 [2, 14]	GI50 [3, 15]	GI50 [3, 16]	GI50 [3, 17]	GI50 [3, 18]	GI50 [4, 19]	GI50 [4, 20]	GI50 [4, 21]	GI50 [4, 22]	loss of potency compared to compound (A1) (growth inhibition) [5]	% Fraction absorbed (MDCK-LE monolayers)	% Recovery (MDCK-LE monolayers)	Papp A − B (MDCK-LE monolayers)	other results
C=C1C(=O)N[C@@H](C)C(=O)N(C)[C@@H](C)C(=O)N[C@@H]([C@H](OC(=O)[C@@H](NC(C)=O)[C@H](O)C(C)C)C(C)C)C(=O)N(C)[C@@H]([C@@H](C)OC)C(=O)O[C@H](C(C)C)[C@H](NC(C)=O)C(=O)O[C@H](Cc2ccccc2)C(=O)N1C [Compound 8] (Ac-[X1][dPhLac][NMeDha]A[NMeA][Leu(3R-O(AcLeu(3R-OH)))][NMeT](Me); ester 1-C)	1 nM	1 nM	0.82 nM	1.24 nM	0.4 nM	0.4 nM	0.33 nM	0.46 nM	> 260 nM	> 260 nM	> 260 nM	> 260 nM	> 260 nM	> 260 nM	> 260 nM	> 260 nM	two to three	70.4%	78%	5.84 ×10⁻⁶ cm/s	EPSA [6]: 94 A^2
CCC(=O)N[C@H](C(=O)O[C@H](C(C)C)[C@@H]1NC(=O)[C@H](C)N(C)C(=O)[C@H](C)NC(=O)[C@H](C)N(C)C(=O)[C@@H](Cc2ccccc2)OC(=O)[C@@H](NC(C)=O)[C@@H](C(C)C)OC(=O)[C@H]([C@@H](C)OC)N(C)C1=O)[C@H](O)C(C)C [Compound 10] (Ac-[X1][dPhLac][NMeA]A[NMeA][X1](Leu(3R-OH,Nα-propionyl))[NMeT](Me); ester 1-C)	607 nM	607 nM	760 nM	453 nM	396 nM	396 nM	419 nM	372 nM	> 10000 nM	> 10000 nM	> 10000 nM	> 10000 nM	> 10000 nM	> 10000 nM	> 10000 nM	> 10000 nM	25-30 fold	37.6%	77%	2.03 ×10⁻⁶ cm/s	–
CCC(=O)N[C@H](C(=O)O[C@H](C(C)C)[C@@H]1NC(=O)[C@H](C)N(C)C(=O)[C@H](C)NC(=O)[C@@H](C)N(C)C(=O)[C@@H](Cc2ccccc2)OC(=O)[C@@H](NC(C)=O)[C@@H](C(C)C)OC(=O)[C@H]([C@@H](C)OC)N(C)C1=O)[C@H](O)C(C)C [Compound 11] (Ac-[X1][dPhLac][dNMeA]A[NMeA][X1](Leu(3R-OH,Nα-propionyl))[NMeT](Me); ester 1-C)	1.8 nM	1.8 nM	1.4 nM	2.24 nM	0.7 nM	0.7 nM	0.54 nM	0.78 nM	> 260 nM	> 260 nM	> 260 nM	> 260 nM	> 260 nM	> 260 nM	> 260 nM	> 260 nM	two to three	79.5%	76%	8.5 ×10⁻⁶ cm/s	EPSA [6]: 95 A^2
